Measurements reported in patent US6972296B2, “Carboxylic acid derivatives that inhibit the binding of integrins to their receptors” (Encysive Pharmaceuticals Inc., priority 1999, dated 2005).

Biological target: T1, α4β1 integrin (Homo sapiens, UniProt P05556+P13612)
T1 construct: endogenous in cells; host or cells: Ramos cells
Assay: Adhesion of calcein-labeled Ramos cells to CS1 (fibronectin) peptide conjugated ovalbumin
Assay type: cell-based
Details: Ramos cell adhesion to CS1 conjugated ovalbumin
Experimental: A procedure in which a 26-amino acid peptide containing the CS1 sequence of fibronectin with an N-terminal Cys ([…]) was coupled to maleimide activated ovalbumin was used to determine the efficacy of the compounds synthesized. Bovine serum albumin (BSA) and CS1 conjugated ovalbumin were coated onto 96-well polystyrene plates at 0.5 μg/ml in TBS (50 mM TRIS, pH 7.5; 150 mM NaCl) at 4° C. for 16 hours. The plates were washed three times with TBS and blocked with TBS containing 3% BSA at room temperature for 4 hours. Blocked plates were washed three times in binding buffer (TBS; 1 mM MgCl2; 1 mM CaCl2; 1 mM MnCl2) prior to assay. Ramos cells fluorescently labeled with calcein AM were resuspended in binding buffer (10^7 cells/ml) and diluted 1:2 with same buffer with or without compound. 100 μM of compound was added. The cells were added immediately to the wells (2.5×10^5 cells/well) and incubated for 30 minutes at 37° C. Following three washes with binding buffer, adherent cells were lysed and quantitated using a fluorometer. IC50 is defined as the dose required to give 50% inhibition, measured in μM for Tables 2 and 4. The lower the IC50 value and the greater the percentage of inhibition, the more efficient the compound is at prevention of cell adhesion.

[1] = Table 7, dose required to give 50% inhibition
[2] = Table 5, dose required to give 50% inhibition

T1 sequence (P13612 34-1032): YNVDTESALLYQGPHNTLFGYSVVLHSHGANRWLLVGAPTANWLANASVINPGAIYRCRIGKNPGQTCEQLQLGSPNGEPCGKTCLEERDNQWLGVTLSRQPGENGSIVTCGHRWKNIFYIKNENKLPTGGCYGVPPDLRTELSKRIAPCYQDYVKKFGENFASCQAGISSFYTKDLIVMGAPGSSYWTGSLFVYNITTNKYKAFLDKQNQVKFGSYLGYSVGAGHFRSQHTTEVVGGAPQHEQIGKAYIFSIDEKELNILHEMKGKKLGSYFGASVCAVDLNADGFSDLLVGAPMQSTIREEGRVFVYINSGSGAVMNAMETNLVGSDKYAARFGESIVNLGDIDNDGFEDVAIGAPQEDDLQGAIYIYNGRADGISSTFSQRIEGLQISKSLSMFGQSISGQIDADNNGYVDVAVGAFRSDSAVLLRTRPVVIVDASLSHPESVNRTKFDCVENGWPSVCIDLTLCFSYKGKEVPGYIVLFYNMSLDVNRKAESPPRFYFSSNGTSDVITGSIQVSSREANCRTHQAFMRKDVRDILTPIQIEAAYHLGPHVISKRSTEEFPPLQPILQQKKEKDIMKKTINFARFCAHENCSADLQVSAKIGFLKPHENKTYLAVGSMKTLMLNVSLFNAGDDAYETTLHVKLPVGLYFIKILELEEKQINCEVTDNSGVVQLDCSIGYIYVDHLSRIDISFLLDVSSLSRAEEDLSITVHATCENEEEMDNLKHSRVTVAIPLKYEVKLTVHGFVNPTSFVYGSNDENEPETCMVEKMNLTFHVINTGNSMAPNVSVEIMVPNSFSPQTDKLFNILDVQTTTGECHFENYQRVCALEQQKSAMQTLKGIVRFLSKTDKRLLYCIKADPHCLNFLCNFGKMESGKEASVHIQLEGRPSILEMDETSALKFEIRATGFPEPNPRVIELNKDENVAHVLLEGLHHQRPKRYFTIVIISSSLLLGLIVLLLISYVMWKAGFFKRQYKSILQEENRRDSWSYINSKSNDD
T1 sequence (P05556 21-798): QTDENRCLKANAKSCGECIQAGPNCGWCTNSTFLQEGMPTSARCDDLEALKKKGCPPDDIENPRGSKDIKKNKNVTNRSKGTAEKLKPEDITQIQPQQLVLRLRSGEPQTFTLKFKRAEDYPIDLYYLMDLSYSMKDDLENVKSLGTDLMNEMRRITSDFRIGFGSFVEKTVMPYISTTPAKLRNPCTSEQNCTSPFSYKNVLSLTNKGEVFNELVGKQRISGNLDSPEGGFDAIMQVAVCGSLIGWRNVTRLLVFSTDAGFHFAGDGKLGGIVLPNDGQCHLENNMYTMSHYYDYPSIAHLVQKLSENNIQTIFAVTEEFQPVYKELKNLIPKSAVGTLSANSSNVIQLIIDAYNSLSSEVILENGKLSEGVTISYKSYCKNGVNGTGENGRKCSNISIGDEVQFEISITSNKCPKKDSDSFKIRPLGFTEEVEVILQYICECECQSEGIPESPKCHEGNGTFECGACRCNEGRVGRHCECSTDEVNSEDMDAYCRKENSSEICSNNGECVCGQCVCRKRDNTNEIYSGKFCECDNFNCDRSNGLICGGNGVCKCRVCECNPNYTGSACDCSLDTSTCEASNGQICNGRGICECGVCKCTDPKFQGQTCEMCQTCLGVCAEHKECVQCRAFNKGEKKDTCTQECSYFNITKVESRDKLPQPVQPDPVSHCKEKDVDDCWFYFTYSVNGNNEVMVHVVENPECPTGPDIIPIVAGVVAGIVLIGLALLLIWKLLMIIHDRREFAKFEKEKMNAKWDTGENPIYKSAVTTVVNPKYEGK

In the case of `CCOc1cccc(Cl)c1Cn1cc(C2CC2)c(O)c(NC(=O)N[C@@H](CC(=O)O)c2cccc(OC(C)C)c2)c1=O` [(3S)-3-[({[1-(2-chloro-6-ethoxybenzyl)-5-cyclopropyl-4-hydroxy-2-oxo-1,2-dihydropyridin-3-yl]amino}carbonyl)amino]-3-(3-isopropoxyphenyl)propanoic acid], the IC50 [1] is reported as 3 nM.
With `Cc1ccc([C@H](CC(=O)O)NC(=O)Nc2cccn(Cc3cc(N)ccc3Br)c2=O)cc1` the IC50 (Table 4, 30 minutes at 37° C.) was 80 nM.
Work on `O=C(O)C[C@@H](NC(=O)Nc1cccn(Cc2ccccc2Cl)c1=O)c1ccc2c(c1)OCO2` yielded an IC50 (Table 4, 30 minutes at 37° C.) of 2000 nM.
`Cc1ccc([C@H](CC(=O)O)NC(=O)Nc2cccn(Cc3cc(F)ccc3F)c2=O)cc1` was tested, and the IC50 (Table 4, 30 minutes at 37° C.) was 800 nM.
In the case of `Cc1ccc([C@H](CC(=O)O)NC(=O)Nc2cccn(Cc3ccc(Cl)cc3Br)c2=O)cc1`, the IC50 (Table 4, 30 minutes at 37° C.) is reported as 1000 nM.
Compound `CS(=O)(=O)Nc1cccc([C@H](CC(=O)O)NC(=O)Nc2c(O)c3c(n(Cc4ccccc4Cl)c2=O)CCC3)c1` [(3S)-3-{[({1-[(2-chlorophenyl)methyl]-4-hydroxy-2-oxo-2,5,6,7-tetrahydro-1H-cyclopenta[b]pyridin-3-yl}amino)carbonyl]amino}-3-{3-[(methylsulfonyl)amino]phenyl}propanoic acid] has an IC50 [1] of 3 nM.
Work on `CSc1ccccc1Cn1ccc(O)c(NC(=O)N[C@@H](CC(=O)O)c2ccc(C)cc2)c1=O` yielded an IC50 [2] of 20 nM.
For `C[C@H](CC(=O)O)NC(=O)Nc1c(O)ccn(Cc2ccccc2Cl)c1=O`, the IC50 [2] was 190 nM.
`O=C(O)C[C@H](NC(=O)Nc1cccn(Cc2ccccc2Cl)c1=O)c1ccc2c(c1)CCC2` showed an IC50 (Table 4, 30 minutes at 37° C.) of 300 nM.
For `COCCOc1cccc(Cl)c1Cn1c2c(c(O)c(NC(=O)N[C@@H](CC(=O)O)c3ccc(C)cc3)c1=O)CCC2`, the IC50 [1] was 6 nM.
For `O=C(O)CC(NC(=O)Nc1c(O)ccn(Cc2ccccc2Cl)c1=O)c1ccc(Cl)cc1` (stereo not drawn), the IC50 (Table 3, 30 minutes at 37° C.) was 30 nM and the IC50 (Table 4, 30 minutes at 37° C.) was 30 nM.
For `CCOc1cccc(Cl)c1Cn1ccc(O)c(NC(=O)N[C@@H](CC(=O)O)c2ccc(C)cc2)c1=O`, the IC50 (Table 6, 30 minutes at 37° C.) was 7 nM.
`Cc1cn(Cc2ccccc2Cl)c(=O)c(NC(=O)N[C@@H](CC(=O)O)c2ccccc2)c1O` gave an IC50 [1] of 15 nM.
In the case of `Cc1ccc(Cn2cccc(NC(=O)N[C@@H](CC(=O)O)c3ccc4c(c3)OCO4)c2=O)cc1`, the IC50 (Table 4, 30 minutes at 37° C.) is reported as 1000 nM.
In the case of `CCCc1cn(Cc2ccccc2Cl)c(=O)c(NC(=O)N[C@@H](CC(=O)O)c2ccc(OCC)c(OCC)c2)c1O` [(3S)-3-[({[1-(2-chlorobenzyl)-4-hydroxy-2-oxo-5-propyl-1,2-dihydropyridin-3-yl]amino}carbonyl)amino]-3-(3,4-diethoxyphenyl)propanoic acid], the IC50 [2] is reported as 5 nM.
Compound `O=C(O)C[C@H](NC(=O)N[C@@H]1CCCN(Cc2cccs2)C1=O)c1ccc2c(c1)OCO2` has an IC50 (Table 2, 30 minutes at 37° C.) of 2000 nM.
For `Cc1ccc([C@H](CC(=O)O)NC(=O)Nc2cccn(Cc3c(C)noc3C)c2=O)cc1`, the IC50 (Table 4, 30 minutes at 37° C.) was 3000 nM.
For `O=C(O)C[C@H](NC(=O)NC1CCCCN(Cc2ccccc2)C1=O)c1ccc2c(c1)OCO2` (stereo partly drawn), the IC50 (Table 4, 30 minutes at 37° C.) was 15 nM.
With `CCN(CC)c1cccc([C@H](CC(=O)O)NC(=O)Nc2c(O)c3c(n(Cc4ccccc4Cl)c2=O)CCC3)c1` [(3S)-3-{[({1-[(2-chlorophenyl)methyl]-4-hydroxy-2-oxo-2,5,6,7-tetrahydro-1H-cyclopenta[b]pyridin-3-yl}amino)carbonyl]amino}-3-[3-(diethylamino)phenyl]propanoic acid] the IC50 [1] was 3 nM.
`Cc1ccc([C@H](CC(=O)O)NC(=O)Nc2c(O)ccn(Cc3cc(C)ccc3C)c2=O)cc1` was tested, and the IC50 [2] was 20 nM.
For `Cc1ccc([C@H](CC(=O)O)NC(=O)Nc2cccn(Cc3c(F)cccc3Cl)c2=O)cc1`, the IC50 (Table 4, 30 minutes at 37° C.) was 100 nM.
`CC(C)(C)c1ccc([C@H](CC(=O)O)NC(=O)Nc2cccn(Cc3cccs3)c2=O)cc1` showed an IC50 (Table 4, 30 minutes at 37° C.) of 2000 nM.
With `Cc1ccccc1NC(=O)Nc1ccc(Cn2cccc(NC(=O)N[C@@H](CC(=O)O)c3ccc4c(c3)OCO4)c2=O)cc1` the IC50 (Table 2, 30 minutes at 37° C.) was 1 nM.
`O=C(O)C[C@H](NC(=O)Nc1c(O)c2c(n(Cc3ccccc3Cl)c1=O)CCC2)c1cnc2ccccc2c1` showed an IC50 [1] of 22 nM.
`Cc1cn(Cc2ccccc2Cl)c(=O)c(NC(=O)N[C@H](c2ccccc2)c2nnn[nH]2)c1O` gave an IC50 [1] greater than 10000 nM.
With `Cc1ccc([C@H](CC(=O)O)NC(=O)Nc2cccn(Cc3ccccc3O)c2=O)cc1` the IC50 [2] was 200 nM.
